Test results as given in the NIST ThermoML archive (doi:10.1021/je1008747).
± gives the expanded uncertainty stated by the source.

Settings: Liquid

C[C@H](O)C(=O)[O-].C[N+](C)(C)CCO
Settings	mass density [kg/m3]
293.15 K, 101.33 kPa	1143.2 ± 7.7
298.15 K, 101.33 kPa	1139.9 ± 7.7
303.15 K, 101.33 kPa	1136.8 ± 7.6
308.15 K, 101.33 kPa	1133.6 ± 7.6
312.4 K, 100 kPa	1130 ± 7
312.4 K, 10000 kPa	1133 ± 7
312.4 K, 20000 kPa	1137 ± 7
312.4 K, 30000 kPa	1140 ± 7
312.4 K, 40000 kPa	1143 ± 8
312.4 K, 50000 kPa	1146 ± 8
312.4 K, 60000 kPa	1150 ± 8
312.4 K, 70000 kPa	1152 ± 8
312.4 K, 80000 kPa	1155 ± 8
312.4 K, 90000 kPa	1157 ± 8
312.4 K, 100000 kPa	1160 ± 9
312.4 K, 110000 kPa	1163 ± 9
312.4 K, 120000 kPa	1166 ± 9
312.4 K, 130000 kPa	1168 ± 9
312.4 K, 140000 kPa	1171 ± 9
312.4 K, 150000 kPa	1173 ± 10
312.4 K, 160000 kPa	1176 ± 10
312.4 K, 170000 kPa	1178 ± 10
312.4 K, 180000 kPa	1181 ± 10
312.4 K, 190000 kPa	1183 ± 10
312.4 K, 200000 kPa	1185 ± 11
313.15 K, 101.33 kPa	1130.5 ± 7.5
318.15 K, 101.33 kPa	1127.3 ± 7.5
323.15 K, 101.33 kPa	1124.2 ± 7.4
328.15 K, 101.33 kPa	1121.1 ± 7.4
332.3 K, 10000 kPa	1121 ± 7
332.3 K, 20000 kPa	1124 ± 7
332.3 K, 30000 kPa	1128 ± 7
332.3 K, 40000 kPa	1131 ± 7
332.3 K, 50000 kPa	1134 ± 8
332.3 K, 60000 kPa	1137 ± 8
332.3 K, 70000 kPa	1140 ± 8
332.3 K, 80000 kPa	1143 ± 8
332.3 K, 90000 kPa	1146 ± 8
332.3 K, 100000 kPa	1149 ± 8
332.3 K, 110000 kPa	1152 ± 9
332.3 K, 120000 kPa	1154 ± 9
332.3 K, 130000 kPa	1157 ± 9
332.3 K, 140000 kPa	1160 ± 9
332.3 K, 150000 kPa	1162 ± 9
332.3 K, 160000 kPa	1165 ± 10
332.3 K, 170000 kPa	1168 ± 10
332.3 K, 180000 kPa	1170 ± 10
332.3 K, 190000 kPa	1172 ± 10
332.3 K, 200000 kPa	1175 ± 10
333.15 K, 101.33 kPa	1118.1 ± 7.3
338.15 K, 101.33 kPa	1115.1 ± 7.3
343.15 K, 101.33 kPa	1112.2 ± 7.2
348.15 K, 101.33 kPa	1109.3 ± 7.2
352.2 K, 10000 kPa	1109 ± 7
352.2 K, 20000 kPa	1113 ± 7
352.2 K, 30000 kPa	1116 ± 7
352.2 K, 40000 kPa	1120 ± 7
352.2 K, 50000 kPa	1123 ± 7
352.2 K, 60000 kPa	1126 ± 8
352.2 K, 70000 kPa	1129 ± 8
352.2 K, 80000 kPa	1132 ± 8
352.2 K, 90000 kPa	1135 ± 8
352.2 K, 100000 kPa	1138 ± 8
352.2 K, 110000 kPa	1141 ± 8
352.2 K, 120000 kPa	1144 ± 9
352.2 K, 130000 kPa	1146 ± 9
352.2 K, 140000 kPa	1149 ± 9
352.2 K, 150000 kPa	1152 ± 9
352.2 K, 160000 kPa	1154 ± 9
352.2 K, 170000 kPa	1157 ± 9
352.2 K, 180000 kPa	1159 ± 10
352.2 K, 190000 kPa	1162 ± 10
352.2 K, 200000 kPa	1165 ± 10
353.15 K, 101.33 kPa	1106.4 ± 7.2
372.3 K, 10000 kPa	1098 ± 7
372.3 K, 20000 kPa	1101 ± 7
372.3 K, 30000 kPa	1105 ± 7
372.3 K, 40000 kPa	1109 ± 7
372.3 K, 50000 kPa	1112 ± 7
372.3 K, 60000 kPa	1115 ± 7
372.3 K, 70000 kPa	1118 ± 8
372.3 K, 80000 kPa	1122 ± 8
372.3 K, 90000 kPa	1125 ± 8
372.3 K, 100000 kPa	1128 ± 8
372.3 K, 110000 kPa	1130 ± 8
372.3 K, 120000 kPa	1133 ± 8
372.3 K, 130000 kPa	1136 ± 8
372.3 K, 140000 kPa	1139 ± 9
372.3 K, 150000 kPa	1142 ± 9
372.3 K, 160000 kPa	1144 ± 9
372.3 K, 170000 kPa	1147 ± 9
372.3 K, 180000 kPa	1150 ± 9
372.3 K, 190000 kPa	1152 ± 10
372.3 K, 200000 kPa	1155 ± 10
392.4 K, 10000 kPa	1086 ± 7
392.4 K, 20000 kPa	1090 ± 7
392.4 K, 30000 kPa	1094 ± 7
392.4 K, 40000 kPa	1098 ± 7
392.4 K, 50000 kPa	1101 ± 7
392.4 K, 60000 kPa	1105 ± 7
392.4 K, 70000 kPa	1108 ± 7
392.4 K, 80000 kPa	1111 ± 7
392.4 K, 90000 kPa	1114 ± 8
392.4 K, 100000 kPa	1117 ± 8
392.4 K, 110000 kPa	1121 ± 8
392.4 K, 120000 kPa	1124 ± 8
392.4 K, 130000 kPa	1126 ± 8
392.4 K, 140000 kPa	1129 ± 8
392.4 K, 150000 kPa	1132 ± 9
392.4 K, 160000 kPa	1135 ± 9
392.4 K, 170000 kPa	1138 ± 9
392.4 K, 180000 kPa	1140 ± 9
392.4 K, 190000 kPa	1143 ± 9
392.4 K, 200000 kPa	1146 ± 10

CCCCn1cc[n+](C)c1.[Cl-] [1-butyl-3-methylimidazolium chloride]
Settings	mass density [kg/m3]
348.15 K, 101.33 kPa	1055.7 ± 2.4
352.1 K, 100 kPa	1054 ± 2
352.1 K, 10000 kPa	1058 ± 2
352.1 K, 20000 kPa	1062 ± 2
352.1 K, 30000 kPa	1067 ± 2
352.1 K, 40000 kPa	1071 ± 2
352.1 K, 50000 kPa	1074 ± 3
352.1 K, 60000 kPa	1078 ± 3
352.1 K, 70000 kPa	1082 ± 3
352.1 K, 80000 kPa	1085 ± 3
352.1 K, 90000 kPa	1089 ± 3
352.1 K, 100000 kPa	1093 ± 3
352.1 K, 110000 kPa	1096 ± 3
352.1 K, 120000 kPa	1099 ± 3
352.1 K, 130000 kPa	1102 ± 3
352.1 K, 140000 kPa	1106 ± 3
352.1 K, 150000 kPa	1109 ± 3
352.1 K, 160000 kPa	1112 ± 3
352.1 K, 170000 kPa	1115 ± 3
352.1 K, 180000 kPa	1118 ± 3
352.1 K, 190000 kPa	1121 ± 4
352.1 K, 200000 kPa	1124 ± 4
353.15 K, 101.33 kPa	1053 ± 2.4
358.15 K, 101.33 kPa	1050.4 ± 2.4
363.15 K, 101.33 kPa	1047.7 ± 2.4
368.15 K, 101.33 kPa	1045.1 ± 2.4
372.4 K, 10000 kPa	1046 ± 2
372.4 K, 20000 kPa	1050 ± 2
372.4 K, 30000 kPa	1055 ± 2
372.4 K, 40000 kPa	1059 ± 2
372.4 K, 50000 kPa	1063 ± 2
372.4 K, 60000 kPa	1067 ± 3
372.4 K, 70000 kPa	1071 ± 3
372.4 K, 80000 kPa	1074 ± 3
372.4 K, 90000 kPa	1078 ± 3
372.4 K, 100000 kPa	1081 ± 3
372.4 K, 110000 kPa	1085 ± 3
372.4 K, 120000 kPa	1088 ± 3
372.4 K, 130000 kPa	1092 ± 3
372.4 K, 140000 kPa	1095 ± 3
372.4 K, 150000 kPa	1099 ± 3
372.4 K, 160000 kPa	1102 ± 3
372.4 K, 170000 kPa	1105 ± 3
372.4 K, 180000 kPa	1108 ± 3
372.4 K, 190000 kPa	1111 ± 3
372.4 K, 200000 kPa	1115 ± 4
373.15 K, 101.33 kPa	1042.6 ± 2.4
392.3 K, 10000 kPa	1034 ± 2
392.3 K, 20000 kPa	1038 ± 2
392.3 K, 30000 kPa	1043 ± 2
392.3 K, 40000 kPa	1047 ± 2
392.3 K, 50000 kPa	1052 ± 2
392.3 K, 60000 kPa	1056 ± 2
392.3 K, 70000 kPa	1059 ± 3
392.3 K, 80000 kPa	1063 ± 3
392.3 K, 90000 kPa	1067 ± 3
392.3 K, 100000 kPa	1071 ± 3
392.3 K, 110000 kPa	1075 ± 3
392.3 K, 120000 kPa	1078 ± 3
392.3 K, 130000 kPa	1081 ± 3
392.3 K, 140000 kPa	1085 ± 3
392.3 K, 150000 kPa	1088 ± 3
392.3 K, 160000 kPa	1092 ± 3
392.3 K, 170000 kPa	1095 ± 3
392.3 K, 180000 kPa	1099 ± 3
392.3 K, 190000 kPa	1102 ± 3
392.3 K, 200000 kPa	1105 ± 3
412.3 K, 10000 kPa	1022 ± 2
412.3 K, 20000 kPa	1027 ± 2
412.3 K, 30000 kPa	1032 ± 2
412.3 K, 40000 kPa	1036 ± 2
412.3 K, 50000 kPa	1041 ± 2
412.3 K, 60000 kPa	1045 ± 2
412.3 K, 70000 kPa	1049 ± 2
412.3 K, 80000 kPa	1053 ± 2
412.3 K, 90000 kPa	1057 ± 3
412.3 K, 100000 kPa	1061 ± 3
412.3 K, 110000 kPa	1064 ± 3
412.3 K, 120000 kPa	1068 ± 3
412.3 K, 130000 kPa	1072 ± 3
412.3 K, 140000 kPa	1076 ± 3
412.3 K, 150000 kPa	1079 ± 3
412.3 K, 160000 kPa	1082 ± 3
412.3 K, 170000 kPa	1086 ± 3
412.3 K, 180000 kPa	1089 ± 3
412.3 K, 190000 kPa	1092 ± 3
412.3 K, 200000 kPa	1096 ± 3
432.2 K, 10000 kPa	1011 ± 2
432.2 K, 20000 kPa	1016 ± 2
432.2 K, 30000 kPa	1021 ± 2
432.2 K, 40000 kPa	1026 ± 2
432.2 K, 50000 kPa	1030 ± 2
432.2 K, 60000 kPa	1035 ± 2
432.2 K, 70000 kPa	1039 ± 2
432.2 K, 80000 kPa	1043 ± 2
432.2 K, 90000 kPa	1047 ± 2
432.2 K, 100000 kPa	1051 ± 3
432.2 K, 110000 kPa	1055 ± 3
432.2 K, 120000 kPa	1059 ± 3
432.2 K, 130000 kPa	1062 ± 3
432.2 K, 140000 kPa	1066 ± 3
432.2 K, 150000 kPa	1069 ± 3
432.2 K, 160000 kPa	1073 ± 3
432.2 K, 170000 kPa	1076 ± 3
432.2 K, 180000 kPa	1080 ± 3
432.2 K, 190000 kPa	1083 ± 3
432.2 K, 200000 kPa	1087 ± 3
452 K, 10000 kPa	1000 ± 2
452 K, 20000 kPa	1005 ± 2
452 K, 30000 kPa	1010 ± 2
452 K, 40000 kPa	1015 ± 2
452 K, 50000 kPa	1020 ± 2
452 K, 60000 kPa	1024 ± 2
452 K, 70000 kPa	1028 ± 2
452 K, 80000 kPa	1032 ± 2
452 K, 90000 kPa	1037 ± 2
452 K, 100000 kPa	1041 ± 2
452 K, 110000 kPa	1045 ± 3
452 K, 120000 kPa	1048 ± 3
452 K, 130000 kPa	1052 ± 3
452 K, 140000 kPa	1056 ± 3
452 K, 150000 kPa	1060 ± 3
452 K, 160000 kPa	1063 ± 3
452 K, 170000 kPa	1067 ± 3
452 K, 180000 kPa	1070 ± 3
452 K, 190000 kPa	1074 ± 3
452 K, 200000 kPa	1077 ± 3
